# Reference: publication PMC12073402, “A Selective MAP3K1 Inhibitor Facilitates Discovery of NPM1 as a Member of the Network” (Molecules, 2025)
# Tests used:
# [1] = test system: TNF-α–induced MAP3K1-IKKβ–mediated NF-κB transcription; assay: NF-κB luciferase reporter assay in HeLa cells; format: cell-based; conditions: 20, 10, 5 μM, TNF-α 20 ng/mL, 6 h
# Description: MAP3K1 was previously shown to phosphorylate IKKβ [12] and regulate NF-κB signaling. Therefore, we validated the ability of 51-106 to inhibit MAP3K1 by probing the phosphorylation status of the known substrate, IKKβ, using an AlphaLISA assay. The pancreatic cancer cells (MiaPaCa2) were subjected to a 30-min pretreatment with varying concentrations of 51-106, followed by TNFα stimulation to induce IKKβ phosphorylation. Following a 15-min stimulation, the levels of phospho-IKKβ and total IKKβ were quantified. […] (Figure 3A). Next, we evaluated the efficacy of 51-106 in a cell-based reporter assay utilizing a HeLa cell line that specifically responds to TNFα induced expression of a luciferase reporter gene that is under the control of an NF-κB response element.
# A suspension of HeLa-NFkB-Luc cells (Cat# SL-0001; Signosis; Santa Clara, CA, USA) (2 × 10^4/well) in 80 μL media was plated in white-walled, flat, clear-bottomed, sterile, 96-well tissue culture plates (Cat# 3610; Corning). The cells were allowed to adhere overnight in a humidified 5% CO2 incubator at 37 °C. […] Post stimulation addition (6 h), fluorescence (Ex 560, Em 590) was measured on the plate reader to assess cell viability. […] Luminescence (1000 ms) was measured on the plate reader set to the kinetic mode of acquisition for 15 min. The luminescence data were normalized to the AlamarBlue values. […]
# NPM1 phosphorylation = assay: TMT phosphoproteomics of PANC-1 cells; format: cell-based; conditions: 10 μM, 2 h, versus DMSO
# Experimental: Next, we wanted to assess the effects of 51-106 on the early phosphorylation events associated with transient MAP3K1 inhibition. To this end, we conducted global proteomic and phosphoproteomic analyses of PANC-1 cells treated with varying doses of 51-106 (10, 5, 2.5, 1.25, 0.625, and 0 μM) for 2 h using a tandem mass tag (TMT)-based multiplexing strategy (Figure 4). Across all conditions, a total of 7028 proteins and 22,843 phosphosites were quantified and successfully mapped to known protein sequences. Significance cutoffs of >0.32 or <−0.32 log2FC of 51-106 compared to DMSO and FDR < 0.05 were used to analyze differences in total and phosphorylated protein levels between treatment and control samples using RokaiXplorer (Supplementary Figure S3a).
# PANC-1 (1 × 10^7) cells were seeded into T125 flasks (FB012939, Fisher Scientific) and allowed to attach overnight in a humidified 5% CO2 incubator at 37 °C. Drug working solutions were prepared from 10 mM DMSO stocks. 51-106 was added in 4 dilutions, in triplicates. […]
# Global proteome and phosphopeptide-enriched fractions were analyzed on an Orbitrap Eclipse mass spectrometer using UltiMate 3000 RSLC nano system for online separation of peptides in trap and elute configuration (Thermo Scientific, San Jose, CA, USA). […] Survey MS scans were recorded in Orbitrap mass analyzer with 375 to 1500 m/z scan range at 120,000 resolution. […]
structure (smiles),measurement,setting,value
"Cn1cc(-c2cnc3ccc(NC(=O)Nc4ccc(F)c(C(F)(F)F)c4)cc3n2)cn1 [51-106, 1-(4-Fluoro-3-(trifluoromethyl)phenyl)-3-(3-(1-methyl-1H-pyrazol-4-yl)quinoxalin-6-yl)urea]",TNF-α–induced NF-κB transcription (luciferase reporter),[1],dose-dependent inhibition
same,decrease in NPM1 S227 phosphorylation,NPM1 phosphorylation,3.5 fold
